From US20100047314A1 (OsteoGeneX Inc., priority 2008, published 2010) come the findings set out here.

Each structure is given as a SMILES string.

Assay [1] deals with male C57BL/6 mice. The experiment in a line: Trabecular bone volume by micro-CT analysis on proximal tibia and lumbar L5. The class given is in vivo, mouse. How it is done:
(§1) Four month old male C57BL/6 mice were treated daily with saline vehicle or the sclerostin inhibitor of calcium folinate at 10-100 mg/kg (via i.p) for 30 days. Study endpoints included a biochemical marker of bone formation; osteocalcin, measured by EIA Elisa, and measurement of trabecular bone volume by mico-CT analysis on the proximal tibia and Lumbar L5.

In assay [2] the test system is male C57BL/6 mice. The experiment in a line: Serum osteocalcin bone formation marker by EIA Elisa in mice treated 30 days. The class given is in vivo, mouse. The settings on record: 100 mg/kg i.p. daily for 30 days, four month old male C57BL/6 mice. How it is done: as §1
Assay [3] has as its system mouse. The experiment in a line: Mouse bone formation assay of SOST antagonist candidates, examined by micro-CT. The conditions noted are these: versus control solution. It counts as in vivo. From the text: (§2) Compounds useful in the methods of the present invention can be identified via a variety of methods known to one of skill in the art. Several exemplary methods for identifying such antagonists are described herein, including cell-based and in vitro techniques (Journal of Bone and Mineral Research 2006, 21(11), 1738-1749). A general method of identifying SOST antagonists involves evaluating the effects of antagonist candidates on bone formation under controlled conditions. Preferably bone formation is determined using micro-CT techniques on live animals. Preferred animals include rodents, more preferred are primates. Femur, tibia and vertebrae bones are particularly useful subjects for such study.
Briefly, the test animal is treated with a predetermined dose of a SOST antagonist candidate. […]
Once the dosing schedule has been completed, both test and control animals are examined to determine the quantity of bone formation present. […] Where necessary, levels of bone formation can be calculated by determining the volume of bone formation present in each animal. […]
For example, the mouse test animal is treated with a predetermined dose of a SOST antagonist candidate for a complete dosing schedule. […] Once the dosing schedule has been completed, both test and control animals are examined with sacrifice using micro-CT to determine the quantity of bone formation present.

Assay [4] has as its system Wnt pathway. The experiment in a line: Modulation of the Wnt pathway (FIG. 1). The settings on record: doses of 2.5 ng (low), 60 ng (medium), 125 ng (high) and 1250 ng (very high).
Excerpt: as §2

Consider `Nc1nc(=O)c2c([nH]1)NCC(CNc1ccc(C(=O)N[C@@H](CCC(=O)[O-])C(=O)[O-])cc1)N2C=O.[Ca+2]` (some centres unmarked) [calcium folinate], for which the “increase in bone volume for the tibia over baseline controls” value in assay [1] (10 mg/kg i.p. daily for 30 days, proximal tibia, micro-CT) is on record as “greater than 37%”. The “increase in bone volume for lumbar L5 over controls” value in assay [1] (100 mg/kg i.p. daily for 30 days, lumbar L5, micro-CT) is 51%. Also, in assay [2], the “percent increase in serum osteocalcin bone formation marker over saline controls” value is reported as 41%.
In the case of `Nc1nc(=O)c2c([nH]1)NCC(CNc1ccc(C(=O)NC(CCC(=O)O)C(=O)O)cc1)N2C=O` (centres unmarked) [folinic acid], in assay [3], the “quantity of bone formation (promotion of bone growth)” value was “promoting bone growth”. Also, the “modulation of the Wnt pathway to promote bone growth” value in assay [4] is “modulating the Wnt pathway to promote bone growth”.
